This note sets out measurements from ChEMBL document CHEMBL1130255, “Intensely cytotoxic anthracycline prodrugs: glucuronides” (J Med Chem, 1997).

For one data set, the system named is glucuronidase. As to the kind of experiment: Half-life in the presence of Escherichia coli -glucuronidase. The class given is ADME. The conditions noted are these: Escherichia coli glucuronidase enzyme.
Data set [1] is described as follows: Half-life when incubated at 37 C in 0.05 M phosphate buffer, pH 7.4, the concentration of 12 uM,. The class given is ADME.

On to `CCOC(CCCN)O[C@@H]1O[C@H](C(=O)[O-])[C@@H](O)[C@H](O)[C@H]1O.[Na+]` (some centres not stated), for which the half-life in the data set with glucuronidase is 1.7 h. The compound also gave a half-life at 12 µM in data set [1] of 30 h.

As usually defined, the half-life is how long it takes for the measured level to halve.
